In this assay the test system is MAPKAP-K2 phosphorylation in B16F10 melanoma tumors. Briefly: B16F10 melanoma target (MAPKAP-K2 phosphorylation). The class given is in vivo, C57B16 mice. The settings on record: p.o., B16F10 tumors in mice, MAPKAP-K2 phosphorylation by immuno-blot. The procedure:
B16F10 Melanoma Target (MAPKAP-K2 Phosphorylation)
The B16F10 melanoma cell line is obtained from the American Type Culture Collection, Rockville, Md. The cells are cultured in RPMI-1640 medium supplemented with 10% fetal calf serum. The cells grown in vitro are harvested during their exponential growth phase by gentle trypsinization, washed twice in medium, and resuspended in serum-free RPMI-1640 medium. The number of viable cells is determined using a hemocytometer and adjusted to 1×10^7/mL. Tumor cells are injected subcutaneously in normal C57B16 mice. Inoculum volume per mouse is 0.2 mL (2,000,000 cells). When the tumors reach 300-500 mg, the mice are used for target inhibition studies at either a fixed time (2.5 hours) after p.o. compound treatment or pharmacodynamic studies where the tumors are collected at multiple time-points (e.g., 3, 6, 9, 12, 15, and 18 h) after p.o. compound treatment.
Protein Extraction and Immuno-Blot Analysis
Tumors collected as described above are immediately snap-frozen in liquid nitrogen and stored at −80° C. […] The supernatant is transferred to fresh prechilled microfuge tubes and protein concentrations are measured using Bio-Rad protein assay reagents using bovine serum albumin as protein standard.
Protein extracts are equalized with the extraction buffer. […] Protein bands of interest are quantified from films using Kodak Image Station 1000.

Compound `CC(C)(C)Cn1c(N)nc2ccc(-c3nc(C(C)(C)C)[nH]c3-c3ccc(F)cc3)nc21.CS(=O)(=O)O.CS(=O)(=O)O` [EXAMPLE 104, Crystalline 5-[2-tert-Butyl-5-(4-fluoro-phenyl)-1H-imidazol-4-yl]-3-(2,2-dimethyl-propyl)-3H-imidazo[4,5-b]pyridin-2-ylamine dimethanesulfonate] showed a TMED50 of 3.59 mg/kg.

For the origin of these results see patent US7582652B2, “Kinase inhibitors” (Eli Lilly and Company, priority 2004, dated 2009).
